Assay results: publication PMC9945734 (BMC Medicine, 2023)
Where two headings read alike, the source gives them in different places.

Experiments:
[1] = test system: PC-3-KQ cells; experiment: 3D spheroid invasion assay and screening of FDA-approved drugs; format: cell-based, human; conditions: Homo sapiens; for activity at 0.01 µM / activity at 0.1 µM / activity at 1 µM / activity at 10 µM: 72 h, compared to vehicle control, read-out: Invasion rates (%) of each drug’s multiple concentrations
Method in brief: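 Cells were clustered into spheroids by centrifugation and grown 3 days, then embedded in matrigel-medium containing drug on day 4 and cultured another 3 days. Drugs were screened at 10 μM first, then at 0–10 μM, in duplicate wells. Invasion area is total area minus core sphere area from phase-contrast images.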

[2] = test system: DU 145 (KLF5 null) cells expressing KLF5; experiment: CCK-8 cell viability assay; format: cell-based; conditions: Homo sapiens, CCK-8, 48 h
Method: (§1) According to the manufacturer's instructions, cell viability was measured using a kit from Beyotime Biotechnology. Briefly, cells were seeded onto 96-well plates at 5 × 10^3 cells per well, incubated overnight, and then treated for 48 h with drugs at 0, 0.02, 0.05, 0.14, 0.41, 1.23, 3.7, 11.1, 33.3, and 100 μM. Four drugs were analyzed: furagin, nifuratel, nitazoxanide, and retapamulin. At the end of drug treatment, the medium was removed, the CCK-8 solution was added into each well at 100 μL/well and incubated for 1.5 h at 37°C, and the optical density (OD) was measured at 450 nm using a microplate reader (BioTek).

[3] = test system: PC-3 (KLF5 null) cells expressing KLF5; experiment: CCK-8 cell viability assay; format: cell-based; conditions: Homo sapiens, CCK-8, 48 h
Method: as §1

[4] = test system: DU 145 (KLF5 null) cells expressing KLF5^K369R; experiment: CCK-8 cell viability assay; format: cell-based; conditions: Homo sapiens, CCK-8, 48 h
Method: as §1

[5] = test system: PC-3 (KLF5 null) cells expressing KLF5^K369R; experiment: CCK-8 cell viability assay; format: cell-based; conditions: Homo sapiens, CCK-8, 48 h
Method: as §1

[6] = In vivo toxicity: body weight, adverse events, H&E of major organs; parameters: species or system Balb/c nude mice; conditions: 100 mg/kg intragastric every day
[7] = test system: PC-3-KLF5, PC-3-KQ, DU 145-KLF5 and DU 145-KQ cell spheroids; experiment: 3D spheroid invasion assay, KLF5^K369Q- versus KLF5-expressing cells; format: cell-based, human; conditions: 0-10 μM
Method: The invasion assay was performed as previously described. Briefly, PC-3-KQ cells at 80-90% confluency were plated onto 384-well round bottom plates with ultra-low attachment (Cat #: 4516, Corning) at 500 cells per well in 80 μL medium. The plates were then centrifuged at 320 g for 4 min to cluster cells in the bottom of wells and incubated for 3 days. On the fourth day, 40 μL medium was removed from each well, 40 μL of the matrigel-medium mixture was added to each well, and cells were cultured for another 3 days. The matrigel (Cat #: 354234, Corning) was from Corning, and the medium contained 1% FBS. At the end of the incubation, images were taken using a phase contrast microscope (Eclipse Ti2, Nikon, Tokyo, Japan) with 10× object lenses, and the total area of cells and the core sphere area of cells (Fig. 1a) were measured using the Image J software. The invading area was calculated using the following formula: invasion area = total area of cells – core sphere area.
Figure S2. The effect of NTZ on acetylated (KQ) and non-mutated KLF5 cell invasion. (a) The effect of NTZ on the invasion of PC-3-KLF5, PC-3-KQ, DU 145-KLF5 and DU 145-KQ cell spheroids at different concentrations (0-10 μM) and quantitative analysis (b). *, p < 0.05; ***, p < 0.001.

[8] = secondary screening of 87 hit compounds (Table S1)
[9] = third screening of 25 hit compounds (Table S2)

Structure (SMILES): CC(=O)Oc1ccccc1C(=O)Nc1ncc([N+](=O)[O-])s1 [Nitazoxanide]
- activity at 0.01 µM ([1]; 0.01 μM (first column so headed), secondary screening of 87 hit compounds (Table S1)): 79.3%
- activity at 0.01 µM ([1]; 0.01 μM (first column so headed), third screening of 25 hit compounds (Table S2)): 94.1%
- activity at 0.01 µM ([1]; 0.01 μM (second column so headed), secondary screening of 87 hit compounds (Table S1)): 79.5%
- activity at 0.01 µM ([1]; 0.01 μM (second column so headed), third screening of 25 hit compounds (Table S2)): 94.3%
- activity at 0.1 µM [1, 8]: 45.6%
- activity at 0.1 µM [1, 9]: 44%
- activity at 1 µM [1, 8]: 4.45%
- activity at 1 µM [1, 9]: 6.41%
- activity at 10 µM [1, 8]: 3.4%
- activity at 10 µM [1, 9]: 1.24%
- inhibition at 0.1 µM ([1]; at 0.1 μM, read-out: inhibition of cell invasion): > 50%
- IC50 [2]: 55.6 ± 1.4 µM
- IC50 [3]: 7 ± 0.7 µM
- IC50 [4]: 49.2 ± 10.1 µM
- IC50 [5]: 11.4 ± 1 µM
- severe adverse events, mortality, histopathological changes in heart, lung, liver, spleen, kidney ([6]; prevention mode): no mice in any NTZ-treated group had severe adverse events, mortality, or noticeable histopathological changes
- body weight ([6]; prevention mode, after 5 weeks): did not show a noticeable change
- body weights ([6]; therapy mode): not affected
- invasion inhibition in KLF5^K369Q- versus KLF5-expressing cells [7]: more potent in invasion inhibition
